Like-named read-outs stand apart in the source and are kept apart here.
Columns and labels:
[1] = target: T1, (Homo sapiens, UniProt P08069); test: IGF1R kinase assay (LCCA), IGF 0P; format: biochemical
T1 construct: human IGF1R kinase domain residues M954-C1367; made in house; host or cells: baculovirus expression (insect cells)
Method in brief: (§1)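 Read-out is percent ATP remaining, detected by luciferase-luciferin luminescence after a 2 h ambient reaction. Reaction contained 4 nM IGF1R kinase domain (residues M954-C1367, baculovirus-made), 3 μM ATP (near KM), 4 μM poly EY, pH 7.5 with Mg2+/Mn2+. Ten inhibitor concentrations; IC50 by Hill-type curve fit.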

IGF 3P = target: T2, IGF 3P (Homo sapiens, UniProt P08069); test: IGF1R kinase assay (LCCA), IGF 3P; format: biochemical
T2 construct: human IGF1R kinase domain residues M954-C1367; made in house; host or cells: baculovirus expression (insect cells)
T2 sequence (P08069 954-1367): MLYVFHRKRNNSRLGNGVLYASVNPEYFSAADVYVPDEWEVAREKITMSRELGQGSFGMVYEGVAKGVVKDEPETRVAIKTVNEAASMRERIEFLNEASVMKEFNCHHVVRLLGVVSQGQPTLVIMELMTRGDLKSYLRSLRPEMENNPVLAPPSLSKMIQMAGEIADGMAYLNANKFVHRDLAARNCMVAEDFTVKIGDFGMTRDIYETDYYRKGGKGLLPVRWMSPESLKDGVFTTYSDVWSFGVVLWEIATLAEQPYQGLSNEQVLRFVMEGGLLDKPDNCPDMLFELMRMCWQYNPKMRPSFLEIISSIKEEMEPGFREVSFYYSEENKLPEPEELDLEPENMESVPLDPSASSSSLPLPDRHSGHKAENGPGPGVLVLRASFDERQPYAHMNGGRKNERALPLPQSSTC
Method in brief: as §1

T1 sequence (P08069 954-1367): as above

| IC50 [1] | IC50 (IGF 3P) | IC50 ([1]; IGF1R kinase LCCA assay) | IC50 (IGF 3P; IGF1R kinase LCCA assay) | Structure (SMILES) |
| --- | --- | --- | --- | --- |
|  |  | > 5000 nM | > 5000 nM | Clc1ccc(-c2ccc(CNc3ncc(Br)c(Nc4cc(C5CC5)n[nH]4)n3)s2)cc1 [Example 324] |
|  |  | 50 to 500 nM | 500 to 5000 nM | Brc1cnc(NCc2cc(-c3ccccc3)no2)nc1Nc1cc(C2CCCC2)n[nH]1 [Example 189] |
|  |  | 500 to 5000 nM | 500 to 5000 nM | Clc1ccccc1Nc1ncc(Br)c(Nc2ccccc2Cl)n1 [Example 222] |
| 50 to 500 nM | 50 to 500 nM |  |  | CN1CCN(c2nc(NCc3cc(-c4ccccc4)no3)nc(Nc3cc(C4CC4)n[nH]3)c2Cl)CC1 [Example 625, 5-chloro-N^4-(3-cyclopropyl-1H-pyrazol-5-yl)-6-(4-methylpiperazin-1-yl)-N^2-[(3-phenylisoxazol-5-yl)methyl]pyrimidine-2,4-diamine] |
|  |  | > 5000 nM | > 5000 nM | O=C(c1ccccc1)c1ccccc1Nc1ncc(Br)c(Nc2cc(C3CC3)n[nH]2)n1 [Example 335] |
|  |  | 50 to 500 nM | 50 to 500 nM | Clc1ccccc1Nc1ncc(Cl)c(Nc2cc(C3CC3)[nH]n2)n1 [Example 101] |
|  |  | > 5000 nM | > 5000 nM | Brc1cnc(Nc2cccc(Oc3ccccc3)c2)nc1Nc1cc(C2CC2)n[nH]1 [Example 330] |
|  |  | 500 to 5000 nM | > 5000 nM | O=C(Nc1ccccc1)c1nc(Nc2ccccc2Cl)nc(Nc2cc(C3CC3)n[nH]2)c1[N+](=O)[O-] [Example 276] |

The remaining lines, values behind:

| Structure (SMILES) | IC50 [1] | IC50 (IGF 3P) | IC50 ([1]; IGF1R kinase LCCA assay) | IC50 (IGF 3P; IGF1R kinase LCCA assay) |
| --- | --- | --- | --- | --- |
| CCc1cc(CNc2nc(Nc3cc(C4CC4)n[nH]3)cc(N3CCN(C)CC3)n2)on1 [Example 655, N^4-(3-cyclopropyl-1H-pyrazol-5-yl)-N^2-[(3-ethylisoxazol-5-yl)methyl]-6-(4-methylpiperazin-1-yl)pyrimidine-2,4-diamine] | 50 to 500 nM | < 50 nM |  |  |
| c1cc(Nc2ccon2)nc(Nc2ccc(N3CCOCC3)cc2)n1 [Example 311] |  |  | > 5000 nM | > 5000 nM |
| CN1CCN(C(=O)CCc2ccc(Nc3ncc(Br)c(Nc4cc(C5CC5)[nH]n4)n3)cc2)CC1 [Example 85] |  |  | 500 to 5000 nM | 50 to 500 nM |
| Cc1cc(CNc2nc(Nc3cc(C4CC4)n[nH]3)cc(N3CCOCC3)n2)on1 [Example 601, N^4-(3-cyclopropyl-1H-pyrazol-5-yl)-N^2-[(3-methylisoxazol-5-yl)methyl]-6-morpholin-4-ylpyrimidine-2,4-diamine] | 50 to 500 nM | < 50 nM |  |  |
| c1ccc(-c2cc(CNc3nc(CN4CCOCC4)cc(Nc4cc(C5CC5)[nH]n4)n3)on2)cc1 [Example 561] |  |  | 50 to 500 nM | 50 to 500 nM |
| CC(C)(C)OC(=O)N1CCC(Nc2ncc(Br)c(Nc3cc(C4CC4)[nH]n3)n2)CC1 [Example 326] |  |  | > 5000 nM | > 5000 nM |
| c1cc(Nc2cc(C3CC3)[nH]n2)nc(NCc2cc(C3CCCCC3)no2)n1 [Example 129] |  |  | 500 to 5000 nM | 50 to 500 nM |
| Nc1ncnc2c1c(-c1ccc(NC(=O)C3(C(=O)Nc4ccc(F)cc4)CC3)cc1)cn2CC1CC2CN(C(=O)OCc3ccccc3)CC2C1 (stereo not drawn) [Example 357] |  |  | > 5000 nM | > 5000 nM |
| Cc1cc(Nc2cc(C3CC3)n[nH]2)nc(NCc2nc(C(=O)NCCc3ccccc3F)cs2)n1 [Example 571] |  |  | 500 to 5000 nM | 500 to 5000 nM |
| CC(C)c1cc(CNc2nc(Cl)cc(Nc3cc(C(C)C)[nH]n3)n2)on1 [Example 544] |  |  | 500 to 5000 nM | < 50 nM |
| Cc1cc(Nc2cc(C)nc(NCc3cc(-c4ccccc4)no3)n2)[nH]n1 [Example 528] |  |  | 50 to 500 nM | 50 to 500 nM |
| CCN(CC)CCCNC(=O)c1ccc(Nc2nccc(Nc3cc(C4CC4)n[nH]3)n2)cc1 [Example 195] |  |  | 500 to 5000 nM | 500 to 5000 nM |
| CC(C)c1cc(Nc2cc(OCCN3CCCCC3)nc(NCc3cc(C(C)C)no3)n2)[nH]n1 [Example 595, N^2-{[3-(1-methylethyl)isoxazol-5-yl]methyl}-N^4-[3-(1-methylethyl)-1H-pyrazol-5-yl]-6-[(2-piperidin-1-ylethyl)oxy]pyrimidine-2,4-diamine] | 50 to 500 nM | < 50 nM |  |  |
| Cc1cc(CNc2nc(Nc3cc(C4CC4)[nH]n3)cc(NC3CC4CCC3C4)n2)on1 (stereo not drawn) [Example 634, N^4-bicyclo[2.2.1]hept-2-yl-N^6-(5-cyclopropyl-1H-pyrazol-3-yl)-N^2-[(3-methylisoxazol-5-yl)methyl]pyrimidine-2,4,6-triamine] | 50 to 500 nM | < 50 nM |  |  |
| COc1ccc(C)cc1Nc1ncc(Br)c(Nc2cc(C3CC3)[nH]n2)n1 [Example 147] |  |  | 500 to 5000 nM | 50 to 500 nM |
| Cc1cc(Nc2nc(Nc3ccc(N4CCOCC4)cc3)ncc2Br)n(C)n1 [Example 215] |  |  | > 5000 nM | 500 to 5000 nM |
| Cc1cc(CNc2nc(C)cc(Nc3cc(C4CC4)n[nH]3)n2)on1 [Example 600, N^4-(3-cyclopropyl-1H-pyrazol-5-yl)-6-methyl-N^2-[(3-methylisoxazol-5-yl)methyl]pyrimidine-2,4-diamine] | 50 to 500 nM | 50 to 500 nM |  |  |
| Brc1cnc(Nc2ccccc2N2CCCCC2)nc1Nc1cc(C2CC2)[nH]n1 [Example 334] |  |  | > 5000 nM | > 5000 nM |
| Brc1cnc(Nc2ccc(Oc3ccccc3)cc2)nc1Nc1cc(C2CC2)[nH]n1 [Example 321] |  |  | > 5000 nM | > 5000 nM |

— patent publication US8211929B2, “Pyrimidine derivatives as kinase modulators and method of use” (Exelixis, Inc., priority 2004, dated 2012)
